{"source": "ChEMBL document CHEMBL1759957", "about": "“Synthesis and antibacterial evaluation of novel 8-fluoro Norfloxacin derivatives as potential probes for methicillin and vancomycin-resistant Staphylococcus aureus” (2011)", "assay_in_all_cases": "microbe, parasite or virus in culture", "format_in_all_cases": "functional", "key": {"Staphylococcus aureus [1]": {"system": "Staphylococcus aureus", "details": "ATCC 25923, 24 h", "description": "Antibacterial activity against methicillin- resistant Staphylococcus aureus ATCC 25923 after 24 hrs by spectrophotometry"}, "Staphylococcus aureus [2]": {"system": "Staphylococcus aureus", "details": "ATCC 29213, 24 h", "description": "Antibacterial activity against methicillin- resistant and vancomycin resistant Staphylococcus aureus ATCC 29213 after 24 hrs by spectrophotometry"}, "Klebsiella pneumoniae": {"system": "Klebsiella pneumoniae", "details": "ATCC 27736, 24 h", "description": "Antibacterial activity against Klebsiella pneumoniae ATCC 27736 after 24 hrs by spectrophotometry"}}, "data": [{"smiles": "CCn1cc(C(=O)O)c(=O)c2cc(F)c(N3CCN(c4nc(NCCN5CCOCC5)nc(NCCN5CCOCC5)n4)CC3)c(F)c21", "values": [{"measurement": "MIC", "setting": "Staphylococcus aureus [1]", "result": 0.78, "unit": "µg/mL"}, {"measurement": "MIC", "setting": "Staphylococcus aureus [2]", "result": 1.56, "unit": "µg/mL"}, {"measurement": "MIC", "setting": "Klebsiella pneumoniae", "result": 0.78, "unit": "µg/mL"}]}, {"smiles": "CCn1cc(C(=O)O)c(=O)c2cc(F)c(N3CCN(c4nc(NC(C)C)nc(NC(C)C)n4)CC3)c(F)c21", "values": [{"measurement": "MIC", "setting": "Staphylococcus aureus [1]", "result": 0.39, "unit": "µg/mL"}, {"measurement": "MIC", "setting": "Staphylococcus aureus [2]", "result": 0.78, "unit": "µg/mL"}, {"measurement": "MIC", "setting": "Klebsiella pneumoniae", "result": 0.39, "unit": "µg/mL"}]}, {"smiles": "O=C(O)c1cn(Cc2ccc(C(F)(F)F)cc2)c2c(F)c(N3CCN(c4nc(N5CCOCC5)nc(N5CCOCC5)n4)CC3)c(F)cc2c1=O", "values": [{"measurement": "MIC", "setting": "Staphylococcus aureus [1]", "result": 3.12, "unit": "µg/mL"}, {"measurement": "MIC", "setting": "Staphylococcus aureus [2]", "result": 1.56, "unit": "µg/mL"}, {"measurement": "MIC", "setting": "Klebsiella pneumoniae", "result": 1.56, "unit": "µg/mL"}]}, {"smiles": "CCCCNc1nc(NCCCC)nc(N2CCN(c3c(F)cc4c(=O)c(C(=O)O)cn(Cc5ccc(C(F)(F)F)cc5)c4c3F)CC2)n1", "values": [{"measurement": "MIC", "setting": "Staphylococcus aureus [1]", "result": 3.12, "unit": "µg/mL"}, {"measurement": "MIC", "setting": "Staphylococcus aureus [2]", "result": 0.39, "unit": "µg/mL"}, {"measurement": "MIC", "setting": "Klebsiella pneumoniae", "result": 0.39, "unit": "µg/mL"}]}, {"smiles": "CC(C)(C)Nc1nc(NC(C)(C)C)nc(N2CCN(c3c(F)cc4c(=O)c(C(=O)O)cn(Cc5ccc(C(F)(F)F)cc5)c4c3F)CC2)n1", "values": [{"measurement": "MIC", "setting": "Staphylococcus aureus [1]", "result": 3.12, "unit": "µg/mL"}, {"measurement": "MIC", "setting": "Staphylococcus aureus [2]", "result": 6.25, "unit": "µg/mL"}, {"measurement": "MIC", "setting": "Klebsiella pneumoniae", "result": 1.56, "unit": "µg/mL"}]}, {"smiles": "CCCNc1nc(NCCC)nc(N2CCN(c3c(F)cc4c(=O)c(C(=O)O)cn(Cc5ccc(C(F)(F)F)cc5)c4c3F)CC2)n1", "values": [{"measurement": "MIC", "setting": "Staphylococcus aureus [1]", "result": 1.56, "unit": "µg/mL"}, {"measurement": "MIC", "setting": "Staphylococcus aureus [2]", "result": 1.56, "unit": "µg/mL"}, {"measurement": "MIC", "setting": "Klebsiella pneumoniae", "result": 0.78, "unit": "µg/mL"}]}, {"smiles": "CC(C)Nc1nc(NC(C)C)nc(N2CCN(c3c(F)cc4c(=O)c(C(=O)O)cn(Cc5ccc(C(F)(F)F)cc5)c4c3F)CC2)n1", "values": [{"measurement": "MIC", "setting": "Staphylococcus aureus [1]", "result": 0.78, "unit": "µg/mL"}, {"measurement": "MIC", "setting": "Staphylococcus aureus [2]", "result": 0.78, "unit": "µg/mL"}, {"measurement": "MIC", "setting": "Klebsiella pneumoniae", "result": 0.39, "unit": "µg/mL"}]}, {"smiles": "CCCCNc1nc(C)cc(N2CCN(c3c(F)cc4c(=O)c(C(=O)O)cn(CC)c4c3F)CC2)n1", "values": [{"measurement": "MIC", "setting": "Staphylococcus aureus [1]", "result": 0.78, "unit": "µg/mL"}, {"measurement": "MIC", "setting": "Staphylococcus aureus [2]", "result": 0.09, "unit": "µg/mL"}, {"measurement": "MIC", "setting": "Klebsiella pneumoniae", "result": 0.78, "unit": "µg/mL"}]}, {"smiles": "CCn1cc(C(=O)O)c(=O)c2cc(F)c(N3CCN(c4cc(C)nc(NC(C)(C)C)n4)CC3)c(F)c21", "values": [{"measurement": "MIC", "setting": "Staphylococcus aureus [1]", "result": 1.56, "unit": "µg/mL"}, {"measurement": "MIC", "setting": "Staphylococcus aureus [2]", "result": 0.78, "unit": "µg/mL"}, {"measurement": "MIC", "setting": "Klebsiella pneumoniae", "result": 0.78, "unit": "µg/mL"}]}, {"smiles": "Cc1cc(N2CCN(c3c(F)cc4c(=O)c(C(=O)O)cn(Cc5ccc(C(F)(F)F)cc5)c4c3F)CC2)nc(N2CCOCC2)n1", "values": [{"measurement": "MIC", "setting": "Staphylococcus aureus [1]", "result": 1.56, "unit": "µg/mL"}, {"measurement": "MIC", "setting": "Staphylococcus aureus [2]", "result": 1.56, "unit": "µg/mL"}, {"measurement": "MIC", "setting": "Klebsiella pneumoniae", "result": 0.78, "unit": "µg/mL"}]}, {"smiles": "Cc1cc(N2CCN(c3c(F)cc4c(=O)c(C(=O)O)cn(Cc5ccc(C(F)(F)F)cc5)c4c3F)CC2)nc(N2CCCCC2)n1", "values": [{"measurement": "MIC", "setting": "Staphylococcus aureus [1]", "result": 0.78, "unit": "µg/mL"}, {"measurement": "MIC", "setting": "Staphylococcus aureus [2]", "result": 0.39, "unit": "µg/mL"}, {"measurement": "MIC", "setting": "Klebsiella pneumoniae", "result": 0.39, "unit": "µg/mL"}]}, {"smiles": "Cc1cc(N2CCN(c3cc4c(cc3F)c(=O)c(C(=O)O)cn4Cc3ccc(C(F)(F)F)cc3)CC2)nc(N2CCN(C)CC2)n1", "values": [{"measurement": "MIC", "setting": "Staphylococcus aureus [1]", "result": 6.25, "unit": "µg/mL"}, {"measurement": "MIC", "setting": "Staphylococcus aureus [2]", "result": 12.5, "unit": "µg/mL"}, {"measurement": "MIC", "setting": "Klebsiella pneumoniae", "result": 6.25, "unit": "µg/mL"}]}, {"smiles": "Cc1cc(N2CCN(c3c(F)cc4c(=O)c(C(=O)O)cn(Cc5ccc(C(F)(F)F)cc5)c4c3F)CC2)nc(NCCN2CCOCC2)n1", "values": [{"measurement": "MIC", "setting": "Staphylococcus aureus [1]", "result": 0.78, "unit": "µg/mL"}, {"measurement": "MIC", "setting": "Staphylococcus aureus [2]", "result": 1.56, "unit": "µg/mL"}, {"measurement": "MIC", "setting": "Klebsiella pneumoniae", "result": 1.56, "unit": "µg/mL"}]}, {"smiles": "CCCCNc1nc(C)cc(N2CCN(c3c(F)cc4c(=O)c(C(=O)O)cn(Cc5ccc(C(F)(F)F)cc5)c4c3F)CC2)n1", "values": [{"measurement": "MIC", "setting": "Staphylococcus aureus [1]", "result": 6.25, "unit": "µg/mL"}, {"measurement": "MIC", "setting": "Staphylococcus aureus [2]", "result": 1.56, "unit": "µg/mL"}, {"measurement": "MIC", "setting": "Klebsiella pneumoniae", "result": 6.25, "unit": "µg/mL"}]}, {"smiles": "CCCNc1nc(C)cc(N2CCN(c3c(F)cc4c(=O)c(C(=O)O)cn(Cc5ccc(C(F)(F)F)cc5)c4c3F)CC2)n1", "values": [{"measurement": "MIC", "setting": "Staphylococcus aureus [1]", "result": 1.56, "unit": "µg/mL"}, {"measurement": "MIC", "setting": "Staphylococcus aureus [2]", "result": 3.12, "unit": "µg/mL"}, {"measurement": "MIC", "setting": "Klebsiella pneumoniae", "result": 1.56, "unit": "µg/mL"}]}, {"smiles": "O=C(O)c1cn(C2CC2)c2cc(N3CCNCC3)c(F)cc2c1=O", "note": "[CIPROFLOXACIN]", "values": [{"measurement": "MIC", "setting": "Staphylococcus aureus [1]", "result": 0.09, "unit": "µg/mL"}, {"measurement": "MIC", "setting": "Staphylococcus aureus [2]", "result": 0.38, "unit": "µg/mL"}, {"measurement": "MIC", "setting": "Klebsiella pneumoniae", "result": 0.19, "unit": "µg/mL"}]}, {"smiles": "CCn1cc(C(=O)O)c(=O)c2cc(F)c(N3CCNCC3)cc21", "note": "[NORFLOXACIN]", "values": [{"measurement": "MIC", "setting": "Staphylococcus aureus [1]", "result": 0.78, "unit": "µg/mL"}, {"measurement": "MIC", "setting": "Staphylococcus aureus [2]", "result": 1.56, "unit": "µg/mL"}, {"measurement": "MIC", "setting": "Klebsiella pneumoniae", "result": 0.39, "unit": "µg/mL"}]}]}
